From PubChem BioAssay (NCI)
Values joined by “and” are separate entries in the source; they are usually repeats but may differ in a detail not shown here. Equal entries are not always repeated.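 Values below derive from 48-hour exposures of cells grown in 96-well plates, with endpoints linearly interpolated between the two concentrations bracketing the appropriate inhibition level. At the GI50, growth is halved. At the TGI there is no net growth.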

Assays:
Test in all cases: inhibition of tumour cell growth, NCI panel, 48 h
[1] = test system: 786-0 renal
[2] = test system: BT-549 breast
[3] = test system: K-562 leukemia
[4] = test system: MALME-3M melanoma
[5] = test system: MDA-MB-231 breast
[6] = test system: NCI-H23 lung
[7] = test system: SR leukemia
[8] = test system: SW-620 colon
[9] = test system: T-47D breast
[10] = test system: TK-10 renal

| Compound | GI50 [1] [µM] | TGI [1] [µM] | GI50 [2] [µM] | TGI [2] [µM] | GI50 [3] [µM] | TGI [3] [µM] | GI50 [4] [µM] | TGI [4] [µM] | GI50 [5] [µM] | TGI [5] [µM] | GI50 [6] [µM] | TGI [6] [µM] | GI50 [7] [µM] | TGI [7] [µM] | GI50 [8] [µM] | TGI [8] [µM] | GI50 [9] | TGI [9] [µM] | GI50 [10] [µM] | TGI [10] [µM] |
| --- | --- | --- | --- | --- | --- | --- | --- | --- | --- | --- | --- | --- | --- | --- | --- | --- | --- | --- | --- | --- |
| S=C(Nc1ccc(Cl)cc1)Nc1ccc(-c2nc3ccccc3o2)cc1 | 26.3 | > 100 | 22.2 | 60.7 | 22.6 | > 100 | 23.8 | 59.9 | 10.3 | 35.1 | 17.7 | 41.8 | 19 | 52.3 | 19.8 | 60.3 | 16.8 µM | 82.8 | 21.2 | 74.1 |
| COc1ccc(/C=C2\CC(C)CC3C2=NN(C(C)=O)C3c2ccc(OC)cc2)cc1 (stereo not drawn) | 18.8 | 37.7 | 23 | 55.9 | 10.1 | 96.3 | 17.8 | 37.9 | 16.4 | 35.7 | 19.6 | 45.2 | 20.4 | 50.5 | 21.8 | 59 | 25.7 µM | > 100 | 30.3 | > 100 |
| O=C(O)c1ccc(S(=O)(=O)Nc2ccc3oc4c(c3c2)C(=O)CCC4)cc1 | > 100 | > 100 | > 100 | > 100 | > 100 | > 100 | > 100 | > 100 | > 100 | > 100 | > 100 | > 100 | > 100 | > 100 | > 100 | > 100 | > 100 µM | > 100 | > 100 | > 100 |
| N#CSc1c[nH]c2ccc(/C=C/C(=O)/C=C(/C=C/c3ccc4[nH]cc(SC#N)c4c3)OB(F)F)cc12 | 0.343 | 3.44 | 0.835 | 3.43 | 0.281 | > 100 | 0.261 | 0.845 | 0.917 | 2.34 | 0.947 | 3.86 | 0.128 | – | 0.333 | 1.16 | 0.791 µM | 8.6 | 0.698 | 14.8 |
| CCN(CC)c1ccc2c(c1)Oc1nc(N)c(C#N)c(N)c1C2Sc1ccc(OC)cc1 (stereo not drawn) | 1.74 | 3.22 | 1.53 | 2.95 | 2.61 | 8.07 | 1.82 | 3.45 | 1.6 | 3.13 | 1.52 | 3.02 | 1.67 | 4.78 | 1.9 | 3.62 | 1.91 µM | 4.89 | 2.8 | 4.33 |
| CN(C)C/C=C/C(=O)Nc1cc2c(Nc3ccc(F)c(Cl)c3F)ncnc2cc1OCCOC(F)F | 0.348 | 3.56 | 1.57 | 6.86 | 0.519 | 11.3 | 1.27 | 2.94 | 0.472 | 6.53 | 1.23 | 3.82 | 0.496 | 4.83 | 1.24 | 9.58 | < 0.0127 µM | 0.458 | < 0.01 | 0.738 |
| Cc1cc(O)c(C2=NN(c3ccc(S(N)(=O)=O)cc3)C(c3ccc(N(C)C)cc3)C2)c(C)c1Cl (stereo not drawn) | 16.8 | 32.2 | 15.4 | 43.3 | 14 | 44.8 | 14.8 | 32.7 | 11 | 27.2 | 17.7 | 43.7 | 14.1 | 41 | 18.4 | 37.8 | 5.72 µM | 19.7 | 22.1 | 42.4 |
| CN1CCN(c2cc(C(=O)Nc3cc4cc(-c5cnn(C)c5)ccc4cn3)ccn2)CC1 | 0.3 | 10.4 | 0.0781 | 0.838 | 0.0727 | > 100 | 0.155 | 0.584 | 0.219 | 3.75 | 0.111 | 3.29 | 0.0472 | 13.6 | 0.0422 | 11.7 | 0.0769 µM | 10.5 | 0.202 | 11.4 |
| CC(=O)N1c2ccccc2NC2=C(C(=O)N(Cc3ccccc3)C2(C)C)C1c1ccco1 (stereo not drawn) | 1.26 | > 23.1 | 8.66 | > 25 | 0.166 | > 25 | 1.2 | > 25 | 0.364 | > 11.3 | 0.494 | > 25 | 0.463 | > 25 | 0.58 | > 25 | 4.88 µM | > 25 | 6.14 | > 25 |
| Cc1nc(CN2CCCCC2)c(O)c(=O)[nH]1 | – | > 100 | – | > 100 | – | > 100 | – | > 100 | – | > 100 | – | > 100 | – | > 100 | – | > 100 | – | > 100 | – | > 100 |
| CCn1cc(-c2ccnc3[nH]ccc23)c(-c2cccc(NC(=O)Nc3ccc(OCc4ccccc4)cc3)c2)n1 | 6.82 | > 25 | > 21.9 | > 25 | 4.72 | > 25 | > 22.6 | > 25 | 6.57 | > 25 | 16.5 | > 25 | 7.25 | > 25 | 20.2 | > 25 | 6.65 µM | > 25 | 24.8 | > 25 |
| O=C(O)c1cc2ccccc2oc1=O | – | > 100 | – | > 100 | – | > 100 | – | > 100 | – | > 100 | – | > 100 | – | > 100 | – | > 100 | > 100 µM and 33.6 µM | > 100 | – | > 100 |
| Cc1cc(Nc2c3ccccc3nc3ccccc23)ccc1NS(C)(=O)=O | 4.73 | 16.7 | 10.3 | 22.5 | 3.59 | 14.5 | 3.4 | 10.3 | 4.35 | 19.7 | – | – | 2.11 | 5.91 | 3.36 | 15.9 | 5.51 µM | 24.5 | 3.23 | 11.7 |
